Source: patent US20020137929A1, “1 - (3-heterocyclylphenyl) isothiourea, -isourea, -guanidine and -amidine herbicidal agents” (Intellectual Property Department, BASF Aktiengesellschaft, priority 1998, published 2002)

How the values were obtained:
SETVI (Foxtail, Green) = experiment: Postemergence herbicidal evaluation; assay type: in vivo, Setaria viridis; details: postemergence
Procedure, shortened: (§1)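 First, seedlings were raised for around two weeks. Next, test material in 50/50 acetone/water containing 0.5% TWEEN 20 was sprayed through a nozzle at 40 psi, equivalent to about 0.0156–0.500 kg/ha. Finally, after 4–5 weeks in the greenhouse, plants were rated 0–9.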

[1] = system: TRZAWR (Wheat, Winter, cv Riband); experiment: Postemergence herbicidal evaluation; assay type: in vivo, Triticum aestivum; details: postemergence
Procedure, shortened: as §1

ECHCG (Barnyardgrass) [2] = experiment: Postemergence herbicidal evaluation; assay type: in vivo, Echinochloa crus-galli; details: postemergence
Procedure, shortened: as §1

CASOB (Sicklepod) = experiment: Preemergence herbicidal evaluation; assay type: in vivo, Cassia obtusifolia; details: rated 4-5 weeks after treatment
Procedure, shortened: (§2)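 Herbicidal effect scored visually, 0-9, at 4 to 5 weeks against a control; compound applied preemergence by aqueous acetone spray to seeded soil at about 0.0156 to 0.500 kg/ha.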

[3] = system: IPOHE (Morningglory, Ivyleaf); experiment: Preemergence herbicidal evaluation; assay type: in vivo, Ipomoea hederacea; details: rated 4-5 weeks after treatment
Procedure, shortened: as §2

ECHCG (Barnyardgrass) [4] = experiment: Preemergence herbicidal evaluation; assay type: in vivo, Echinochloa crus-galli; details: rated 4-5 weeks after treatment
Procedure, shortened: as §2

AMBEL (Ragweed, Common) = experiment: Postemergence herbicidal evaluation; assay type: in vivo, Ambrosia artemisifolia; details: postemergence
Procedure, shortened: as §1

[5] = system: IPOHE (Morningglory, Ivyleaf); experiment: Postemergence herbicidal evaluation; assay type: in vivo, Ipomoea hederacea; details: postemergence
Procedure, shortened: as §1

ZEAMX (Corn, Field) = experiment: Preemergence herbicidal evaluation; assay type: in vivo, Zea mays; details: rated 4-5 weeks after treatment
Procedure, shortened: as §2

GALAP (Galium) = experiment: Preemergence herbicidal evaluation; assay type: in vivo, Galium aparine; details: rated 4-5 weeks after treatment
Procedure, shortened: as §2

ABUTH (Velvetleaf) = experiment: Postemergence herbicidal evaluation; assay type: in vivo, Abutilon theophrasti; details: postemergence
Procedure, shortened: as §1

[6] = system: CHEAL (Lambsquarters, Common); experiment: Preemergence herbicidal evaluation; assay type: in vivo, Chenopodium album; details: rated 4-5 weeks after treatment
Procedure, shortened: as §2

[7] = system: GLXMAW (Soybean, Williams); experiment: Postemergence herbicidal evaluation; assay type: in vivo, Glycine max, (L.) Merr. cv Williams; details: postemergence
Procedure, shortened: as §1

[8] = system: ECHORC (Watergrass (Calif.)); experiment: Postemergence weed control under flooded paddy conditions; assay type: in vivo, Echinochloa oryzoides; details: postemergence weeds, rated 3 to 4 weeks after treatment
Procedure, shortened: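 Flood-water application, about 0.0313–0.500 kg/ha a.i. in aqueous/acetone 50/50 v/v; water depth 1.5–3 cm throughout. Weeds 3–5 cm, rice 1.5–2.5 leaf. Greenhouse; 0–9 visual rating vs control at 3–4 wk.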

With CCOC(=O)[C@H](C)N1C(=O)CSC1=Nc1cc(-n2c(=O)cc(C(F)(F)F)n(C)c2=O)c(F)cc1Cl [Compound 76, Ethyl 2-{{2-chloro-5-[3,6-dihydro-3-methyl-2,6-dioxo-4-(trifluoromethyl)-1(2H)-pyrimidinyl]-4-fluorophenyl}imino}-α-methyl-4-oxo-3-thiazolidineacetate, L-] the SETVI herbicidal rating (SETVI (Foxtail, Green); rate 0.0158 kg/ha) was 1.0, the SETVI herbicidal rating (SETVI (Foxtail, Green); rate 0.0315 kg/ha) was 2.0 and the SETVI herbicidal rating (SETVI (Foxtail, Green); rate 0.0630 kg/ha) was 9.0. For the same molecule, the TRZAWR herbicidal rating ([1]; rate 0.0158 kg/ha) was 3.5, the TRZAWR herbicidal rating ([1]; rate 0.0315 kg/ha) was 5.0 and the TRZAWR herbicidal rating ([1]; rate 0.0630 kg/ha) was 5.5. It also gave an ECHCG herbicidal rating (ECHCG (Barnyardgrass) [2]; rate 0.0158 kg/ha) of 1.0, an ECHCG herbicidal rating (ECHCG (Barnyardgrass) [2]; rate 0.0315 kg/ha) of 1.0 and an ECHCG herbicidal rating (ECHCG (Barnyardgrass) [2]; rate 0.0630 kg/ha) of 2.0. The “Preemergence herbicidal rating CASOB” value (CASOB (Sicklepod); rate 0.0156 kg/ha) was 0.0, the “Preemergence herbicidal rating CASOB” value (CASOB (Sicklepod); rate 0.0313 kg/ha) was 0.0 and the “Preemergence herbicidal rating CASOB” value (CASOB (Sicklepod); rate 0.0625 kg/ha) was 0.0. The “Preemergence herbicidal rating CASOB” value (CASOB (Sicklepod); rate 0.1250 kg/ha) was 0.0, the “Preemergence herbicidal rating CASOB” value (CASOB (Sicklepod); rate 0.2500 kg/ha) was 1.0 and the “Preemergence herbicidal rating IPOHE” value ([3]; rate 0.0156 kg/ha) was 0.0. For the same molecule, the “Preemergence herbicidal rating IPOHE” value ([3]; rate 0.0313 kg/ha) was 0.0, the “Preemergence herbicidal rating IPOHE” value ([3]; rate 0.0625 kg/ha) was 0.0 and the “Preemergence herbicidal rating IPOHE” value ([3]; rate 0.1250 kg/ha) was 9.0. The “Preemergence herbicidal rating IPOHE” value ([3]; rate 0.2500 kg/ha) was 9.0, the “Preemergence herbicidal rating ECHCG” value (ECHCG (Barnyardgrass) [4]; rate 0.0156 kg/ha) was 0.0 and the “Preemergence herbicidal rating ECHCG” value (ECHCG (Barnyardgrass) [4]; rate 0.0313 kg/ha) was 0.0. For the same molecule, the “Preemergence herbicidal rating ECHCG” value (ECHCG (Barnyardgrass) [4]; rate 0.0625 kg/ha) was 1.0, the “Preemergence herbicidal rating ECHCG” value (ECHCG (Barnyardgrass) [4]; rate 0.1250 kg/ha) was 7.0 and the “Preemergence herbicidal rating ECHCG” value (ECHCG (Barnyardgrass) [4]; rate 0.2500 kg/ha) was 9.0. It also gave an AMBEL herbicidal rating (AMBEL (Ragweed, Common); rate 0.0158 kg/ha) of 9.0, an AMBEL herbicidal rating (AMBEL (Ragweed, Common); rate 0.0315 kg/ha) of 9.0 and an AMBEL herbicidal rating (AMBEL (Ragweed, Common); rate 0.0630 kg/ha) of 9.0. For the same molecule, the IPOHE herbicidal rating ([5]; rate 0.0158 kg/ha) was 9.0, the IPOHE herbicidal rating ([5]; rate 0.0315 kg/ha) was 9.0 and the IPOHE herbicidal rating ([5]; rate 0.0630 kg/ha) was 9.0. The “Preemergence herbicidal rating ZEAMX” value (ZEAMX (Corn, Field); rate 0.0156 kg/ha) was 0.0, the “Preemergence herbicidal rating ZEAMX” value (ZEAMX (Corn, Field); rate 0.0313 kg/ha) was 1.0 and the “Preemergence herbicidal rating ZEAMX” value (ZEAMX (Corn, Field); rate 0.0625 kg/ha) was 5.0. The “Preemergence herbicidal rating ZEAMX” value (ZEAMX (Corn, Field); rate 0.1250 kg/ha) was 7.0, the “Preemergence herbicidal rating ZEAMX” value (ZEAMX (Corn, Field); rate 0.2500 kg/ha) was 7.0 and the “Preemergence herbicidal rating GALAP” value (GALAP (Galium); rate 0.0156 kg/ha) was 0.0. For the same molecule, the “Preemergence herbicidal rating GALAP” value (GALAP (Galium); rate 0.0313 kg/ha) was 0.0, the “Preemergence herbicidal rating GALAP” value (GALAP (Galium); rate 0.0625 kg/ha) was 0.0 and the “Preemergence herbicidal rating GALAP” value (GALAP (Galium); rate 0.1250 kg/ha) was 1.0. For the same molecule, the “Preemergence herbicidal rating GALAP” value (GALAP (Galium); rate 0.2500 kg/ha) was 9.0, the ABUTH herbicidal rating (ABUTH (Velvetleaf); rate 0.0158 kg/ha) was 9.0 and the ABUTH herbicidal rating (ABUTH (Velvetleaf); rate 0.0315 kg/ha) was 9.0. The ABUTH herbicidal rating (ABUTH (Velvetleaf); rate 0.0630 kg/ha) was 9.0, the “Preemergence herbicidal rating CHEAL” value ([6]; rate 0.0156 kg/ha) was 9.0 and the “Preemergence herbicidal rating CHEAL” value ([6]; rate 0.0313 kg/ha) was 9.0. For the same molecule, the “Preemergence herbicidal rating CHEAL” value ([6]; rate 0.0625 kg/ha) was 9.0, the “Preemergence herbicidal rating CHEAL” value ([6]; rate 0.1250 kg/ha) was 9.0 and the “Preemergence herbicidal rating CHEAL” value ([6]; rate 0.2500 kg/ha) was 9.0. The GLXMAW herbicidal rating ([7]; rate 0.0158 kg/ha) was 4.0, the GLXMAW herbicidal rating ([7]; rate 0.0315 kg/ha) was 5.5 and the GLXMAW herbicidal rating ([7]; rate 0.0630 kg/ha) was 6.0. The “Herbicidal rating ECHORC” value ([8]; Rate 0.0313 kg/ha) was 4.0, the “Herbicidal rating ECHORC” value ([8]; Rate 0.0625 kg/ha) was 7.0 and the “Herbicidal rating ECHORC” value ([8]; Rate 0.1250 kg/ha) was 9.0. For the same molecule, the “Herbicidal rating ECHORC” value ([8]; Rate 0.2500 kg/ha) was 9.0.
